These results are taken from US20090163523A1, “Combinations comprising a s1p receptor agonist and a jak3 kinase inhibitor” (priority 2004, published 2009).

The test system of the test is donor heart graft. In words: Rat heart transplantation, graft survival. The class given is in vivo. Conditions: 672 h; rat heart transplant; blood concentration; read-out: EC50 (drug concentration in blood at which 50% of the animals maintain their graft for >28 days). The protocol:
The aorta is ligated and divided distal to the first branch and the brachiocephalic trunk is divided at the first bifurcation. The left pulmonary artery is ligated and divided and the right side divided but left open. All other vessels are dissected free, ligated and divided and the donor heart is removed into iced saline.
The recipient is prepared by dissection and cross-clamping of the infra-renal abdominal aorta and vena cava. The graft is implanted with end-to-side anastomoses, using 10/0 monofilament suture, between the donor brachiocephalic trunk and the recipient aorta and the donor right pulmonary artery to the recipient vena cava. The clamps are removed, the graft tethered retroabdominally, the abdominal contents washed with warm saline and the animal is closed and allowed to recover under a heating lamp. Graft survival is monitored by daily palpation of the beating donor heart through the abdominal wall. Rejection is considered to be complete when heart beat stops.

Values after ≈ are worked out from the molar mass of the structure shown.

Regarding `C[C@@H]1CCN(C(=O)CC#N)C[C@@H]1N(C)c1ncnc2[nH]ccc12` [CP-690,550 mono-citrate, 3-{(3R,4R)-4-methyl-3-[methyl-(7H-pyrrolo[2,3-d]pyrimidin-4-yl)-amino]-piperidin-1-yl}-3-oxo-propionitrile], the EC50 amounted to 0.06 µg/mL (≈ 0.192 µM).
